In US9283222B2 (priority 2006, dated 2016):
Like-named read-outs stand apart in the source and are kept apart here.

Biological target: Recombinant Human Poly(ADP-Ribose) Polymerase (PARP), PARP-1 (Homo sapiens (Human), UniProt P09874)
Conditions: read-out: PARP-1 (Ki)
[1] = Table 1, text calls the values EC50s

Sequence of Recombinant Human Poly(ADP-Ribose) Polymerase (PARP), PARP-1 (P09874 whole entry): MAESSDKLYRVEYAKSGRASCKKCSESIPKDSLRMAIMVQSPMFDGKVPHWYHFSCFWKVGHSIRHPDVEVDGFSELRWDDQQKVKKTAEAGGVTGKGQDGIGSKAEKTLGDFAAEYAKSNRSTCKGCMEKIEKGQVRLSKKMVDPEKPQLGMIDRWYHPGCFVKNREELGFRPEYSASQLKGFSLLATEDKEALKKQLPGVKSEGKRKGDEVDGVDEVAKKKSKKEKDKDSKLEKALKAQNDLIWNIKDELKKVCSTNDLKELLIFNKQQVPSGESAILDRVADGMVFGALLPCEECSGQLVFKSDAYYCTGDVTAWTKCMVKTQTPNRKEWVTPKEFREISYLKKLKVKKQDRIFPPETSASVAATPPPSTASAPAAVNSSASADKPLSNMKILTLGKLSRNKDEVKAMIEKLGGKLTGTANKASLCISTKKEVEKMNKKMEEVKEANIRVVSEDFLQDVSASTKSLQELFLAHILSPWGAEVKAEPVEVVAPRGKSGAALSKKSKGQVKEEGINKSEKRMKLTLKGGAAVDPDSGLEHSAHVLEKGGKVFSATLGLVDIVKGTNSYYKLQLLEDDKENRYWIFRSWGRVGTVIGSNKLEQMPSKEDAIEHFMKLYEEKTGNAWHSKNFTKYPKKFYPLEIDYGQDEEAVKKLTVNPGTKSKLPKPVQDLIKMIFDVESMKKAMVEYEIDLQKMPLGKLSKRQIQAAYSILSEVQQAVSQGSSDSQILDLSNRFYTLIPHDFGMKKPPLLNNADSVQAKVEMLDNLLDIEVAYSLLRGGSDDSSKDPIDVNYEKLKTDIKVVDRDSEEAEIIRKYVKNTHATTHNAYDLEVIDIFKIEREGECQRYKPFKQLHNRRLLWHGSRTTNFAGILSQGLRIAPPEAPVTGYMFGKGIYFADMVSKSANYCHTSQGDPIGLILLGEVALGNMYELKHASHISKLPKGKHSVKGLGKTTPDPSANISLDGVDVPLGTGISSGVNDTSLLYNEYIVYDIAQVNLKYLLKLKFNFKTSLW

SMILES | Ki [1] [nM] | Ki [nM]
O=C(Nc1ccccc1Nc1ccccc1)c1cccc(Cc2n[nH]c(=O)c3c2CCCC3)c1 [Example 364, N-(2-anilinophenyl)-3-((4-oxo-3,4,5,6,7,8-hexahydrophthalazin-1-yl)methyl)benzamide] | 316 | 
COc1ccccc1CCNC(=O)c1cccc(Cc2n[nH]c(=O)c3c2CCCC3)c1 [Example 382, N-(2-(2-methoxyphenyl)ethyl)-3-((4-oxo-3,4,5,6,7,8-hexahydrophthalazin-1-yl)methyl)benzamide] | 79 | 
CCN1CCN(C(=O)c2cccc(Cc3n[nH]c(=O)c4c3CCCC4)c2)CC1 [Example 436, 4-(3-((4-ethylpiperazin-1-yl)carbonyl)benzyl)-5,6,7,8-tetrahydrophthalazin-1(2H)-one] | 10 | 
CC(C)C[C@H](NC(=O)Nc1cc(Cc2n[nH]c(=O)c3c2CCCC3)ccc1F)C(=O)O [Example 626, N-[({2-fluoro-5-[(4-oxo-3,4,5,6,7,8-hexahydrophthalazin-1-yl)methyl]phenyl}amino)carbonyl]leucine] |  | 173
CC(Cc1n[nH]c(=O)c2c1CCCC2)c1ccc(F)c(-c2cccc(C(=O)NC3CC3)c2)c1 (stereo not drawn) [Example 277, N-cyclopropyl-2′-fluoro-5′-(1-methyl-2-(4-oxo-3,4,5,6,7,8-hexahydrophthalazin-1-yl)ethyl)-1,1′-biphenyl-3-carboxamide] | 436 | 
CN(C)CCNC(=O)c1cccc(-c2cc(CCc3n[nH]c(=O)c4c3CCCC4)ccc2F)c1 [Example 271, N-(2-(dimethylamino)ethyl)-2′-fluoro-5′-(2-(4-oxo-3,4,5,6,7,8-hexahydrophthalazin-1-yl)ethyl)-1,1′-biphenyl-3-carboxamide] | 1140 | 
O=C1CC[C@@H](C(=O)Nc2cccc(Cc3n[nH]c(=O)c4c3CCCC4)c2)N1 [Example 139, 5-oxo-N-(3-((4-oxo-3,4,5,6,7,8-hexahydrophthalazin-1-yl)methyl)phenyl)-L-prolinamide] | 206 | 
O=C(Nc1cccc(Cc2n[nH]c(=O)c3c2CCCC3)c1)c1nccs1 [Example 204, N-(3-((4-oxo-3,4,5,6,7,8-hexahydrophthalazin-1-yl)methyl)phenyl)-1,3-thiazole-2-carboxamide] | 203 | 
Cc1ccc(C(=O)Nc2cccc(Cc3n[nH]c(=O)c4c3CCCC4)c2)s1 [Example 199, 5-methyl-N-(3-((4-oxo-3,4,5,6,7,8-hexahydrophthalazin-1-yl)methyl)phenyl)thiophene-2-carboxamide] | 196 | 
CCOc1ccc(C(=O)Nc2cccc(Cc3n[nH]c(=O)c4c3CCCC4)c2)cc1 [Example 228, 4-ethoxy-N-(3-((4-oxo-3,4,5,6,7,8-hexahydrophthalazin-1-yl)methyl)phenyl)benzamide] | 98 | 
CCNC(=O)c1ncccc1Cc1n[nH]c(=O)c2c1CCCC2 [Example 96, N-ethyl-3-((4-oxo-3,4,5,6,7,8-hexahydrophthalazin-1-yl)methyl)pyridine-2-carboxamide] | 2610 | 
Cc1ccc(NC(=O)c2cccc(Cc3n[nH]c(=O)c4c3CCCC4)c2)cc1Br [Example 344, N-(3-bromo-4-methylphenyl)-3-((4-oxo-3,4,5,6,7,8-hexahydrophthalazin-1-yl)methyl)benzamide] | 194 | 
O=C(CCC(=O)c1ccc(Oc2ccccc2)cc1)Nc1cccc(CCc2n[nH]c(=O)c3c2CCCC3)c1 [Example 321, 4-oxo-N-(3-(2-(4-oxo-3,4,5,6,7,8-hexahydrophthalazin-1-yl)ethyl)phenyl)-4-(4-phenoxyphenyl)butanamide] | 223 | 
O=C(Nc1cccc(Cc2n[nH]c(=O)c3c2CCCC3)c1)c1cscn1 [Example 205, N-(3-((4-oxo-3,4,5,6,7,8-hexahydrophthalazin-1-yl)methyl)phenyl)-1,3-thiazole-4-carboxamide] | 176 | 
Cn1cccc1C(=O)Nc1cccc(Cc2n[nH]c(=O)c3c2CCCC3)c1 [Example 201, 1-methyl-N-(3-((4-oxo-3,4,5,6,7,8-hexahydrophthalazin-1-yl)methyl)phenyl)-1H-pyrrole-2-carboxamide] | 570 | 
CC(Cc1n[nH]c(=O)c2c1CCCC2)c1ccc(F)c(-c2cccc(C(=O)N3CCOCC3)c2)c1 (stereo not drawn) [Example 275, 4-(2-(6-fluoro-3′-(morpholin-4-ylcarbonyl)-1,1′-biphenyl-3-yl)propyl)-5,6,7,8-tetrahydrophthalazin-1(2H)-one] | 471 | 
O=C(Nc1ccc(N2CCOCC2)cc1)c1cccc(Cc2n[nH]c(=O)c3c2CCCC3)c1 [Example 363, N-(4-morpholin-4-ylphenyl)-3-((4-oxo-3,4,5,6,7,8-hexahydrophthalazin-1-yl)methyl)benzamide] | 132 | 
O=C(Nc1cccc(Cc2n[nH]c(=O)c3c2CCCC3)c1)c1cccc(F)c1F [Example 181, 2,3-difluoro-N-(3-((4-oxo-3,4,5,6,7,8-hexahydrophthalazin-1-yl)methyl)phenyl)benzamide] | 212 | 
NC(=O)C1CCCN(C(=O)c2cc(Cc3n[nH]c(=O)c4c3CCCC4)ccc2F)C1 (stereo not drawn) [Example 500, 1-{2-fluoro-5-[(4-oxo-3,4,5,6,7,8-hexahydrophthalazin-1-yl)methyl]benzoyl}piperidine-3-carboxamide] | 3 | 

The remaining compounds from weak to strong by Ki [1], led by results:

Ki [1] [nM] | Ki [nM] | SMILES
55 |  | Cc1c(O)cccc1NC(=O)c1cccc(Cc2n[nH]c(=O)c3c2CCCC3)c1 [Example 349, N-(3-hydroxy-2-methylphenyl)-3-((4-oxo-3,4,5,6,7,8-hexahydrophthalazin-1-yl)methyl)benzamide]
44 |  | COc1cccc(CCNC(=O)c2cccc(Cc3n[nH]c(=O)c4c3CCCC4)c2)c1 [Example 383, N-(2-(3-methoxyphenyl)ethyl)-3-((4-oxo-3,4,5,6,7,8-hexahydrophthalazin-1-yl)methyl)benzamide]
40 |  | CS(=O)(=O)c1nccc(Cc2n[nH]c(=O)c3c2CCCC3)n1 [Example 69, 4-((2-(methylsulfonyl)pyrimidin-4-yl)methyl)-5,6,7,8-tetrahydrophthalazin-1(2H)-one]
15 |  | CN(C)CCCN1CCCN(C(=O)c2cc(Cc3n[nH]c(=O)c4c3NCCC4)ccc2F)C1 [Example 604, 8-(3-{[3-[3-(dimethylamino)propyl]tetrahydropyrimidin-1(2H)-yl]carbonyl}-4-fluorobenzyl)-2,3,4,6-tetrahydropyrido[2,3-d]pyridazin-5(1H)-one]
11 |  | O=C(NC1CCN(C(=O)c2cscn2)CC1)c1cc(Cc2n[nH]c(=O)c3c2NCCC3)ccc1F [Example 731, 2-fluoro-5-[(5-oxo-1,2,3,4,5,6-hexahydropyrido[2,3-d]pyridazin-8-yl)methyl]-N-[1-(1,3-thiazol-4-ylcarbonyl)piperidin-4-yl]benzamide]
6 |  | O=C(CCOc1ccccc1)Nc1cccc(Cc2n[nH]c(=O)c3c2CCCC3)c1 [Example 153, N-(3-((4-oxo-3,4,5,6,7,8-hexahydrophthalazin-1-yl)methyl)phenyl)-3-phenoxypropanamide]
6 |  | CCN(C(C)=O)C1CCN(C(=O)c2cc(Cc3n[nH]c(=O)c4c3NCCC4)ccc2F)C1 (stereo not drawn) [Example 596, N-ethyl-N-(1-{2-fluoro-5-[(5-oxo-1,2,3,4,5,6-hexahydropyrido[2,3-d]pyridazin-8-yl)methyl]benzoyl}pyrrolidine-3-yl)acetamide]
6 |  | O=C(c1cccc(Cc2n[nH]c(=O)c3c2CCCC3)c1)N1CCC(c2ccccc2)CC1 [Example 61, 4-(3-((4-phenylpiperidin-1-yl)carbonyl)benzyl)-5,6,7,8-tetrahydrophthalazin-1(2H)-one]
4 |  | O=C(NC1CCN(C(=O)c2ccccn2)CC1)c1cc(Cc2n[nH]c(=O)c3c2NCCC3)ccc1F [Example 736, 2-fluoro-5-[(5-oxo-1,2,3,4,5,6-hexahydropyrido[2,3-d]pyridazin-8-yl)methyl]-N-[1-(pyridin-2-ylcarbonyl)piperidin-4-yl]benzamide]
4 |  | CN(C(=O)c1cc(Cc2n[nH]c(=O)c3c2NCCC3)ccc1F)C1CCN(C(=O)c2ccncc2)CC1 [Example 712, 2-fluoro-N-(1-isonicotinoylpiperidin-4-yl)-N-methyl-5-[(5-oxo-1,2,3,4,5,6-hexahydropyrido[2,3-d]pyridazin-8-yl)methyl]benzamide]
4 |  | CC1(C)CC(=O)N(c2cc(Cc3n[nH]c(=O)c4c3CCCC4)ccc2F)C1=O [Example 299, 1-(2-fluoro-5-((4-oxo-3,4,5,6,7,8-hexahydrophthalazin-1-yl)methyl)phenyl)-3,3-dimethylpyrrolidine-2,5-dione]
3 |  | CCN(CCNC(=O)OC(C)(C)C)C(=O)c1cc(Cc2n[nH]c(=O)c3c2CCCC3)ccc1F [Example 711, tert-butyl 2-(ethyl{2-fluoro-5-[(4-oxo-3,4,5,6,7,8-hexahydrophthalazin-1-yl)methyl]benzoyl}amino)ethylcarbamate]
3 |  | O=c1[nH]nc(Cc2ccc(F)c(N3CCCS3(=O)=O)c2)c2c1CCCC2 [Example 305, 4-(3-(1,1-dioxidoisothiazolidin-2-yl)-4-fluorobenzyl)-5,6,7,8-tetrahydrophthalazin-1(2H)-one]
2.4 |  | O=C(c1ccncc1)N1CCCN(C(=O)c2cc(Cc3n[nH]c(=O)c4c3NCCC4)ccc2F)CC1 [Example 682, 8-{4-fluoro-3-[(4-isonicotinoyl-1,4-diazepan-1-yl)carbonyl]benzyl}-2,3,4,6-tetrahydropyrido[2,3-d]pyridazin-5(1H)-one]
2.4 |  | CC(C)n1nnc2cc(C(=O)N3CCCN(C(=O)c4cc(Cc5n[nH]c(=O)c6c5NCCC6)ccc4F)CC3)ccc21 [Example 690, 8-[4-fluoro-3-({4-[(1-isopropyl-1H-1,2,3-benzotriazol-5-yl)carbonyl]-1,4-diazepan-1-yl}carbonyl)benzyl]-2,3,4,6-tetrahydropyrido[2,3-d]pyridazin-5(1H)-one]
1.4 |  | O=C(c1ccncc1)N1CCN(C(=O)c2cc(Cc3n[nH]c(=O)c4c3NCCC4)ccc2F)CC1 [Example 660, 8-{4-fluoro-3-[(4-isonicotinoylpiperazin-1-yl)carbonyl]benzyl}-2,3,4,6-tetrahydropyrido[2,3-d]pyridazin-5(1H)-one]
1.3 |  | O=C(c1cc(Cc2n[nH]c(=O)c3c2CCCC3)ccc1F)N1CCC(O)CC1 [Example 503, 4-{4-fluoro-3-[(4-hydroxypiperidin-1-yl)carbonyl]benzyl}-5,6,7,8-tetrahydrophthalazin-1(2H)-one]
